Laboratory results taken from paper PMC7948948 (The Journal of Biological Chemistry, 2021).
Converted amounts (≈) assume the structure as drawn. “And” between values parts separate entries of the source, which are not always exact repeats. Identical values can stand only once. “Also recorded” adds a separate entry of the source. Like-named read-outs stand apart in the source and are kept apart here.

Assays:
Mtb PheRS [1] = target: T1, Mtb PheRS (Mycobacterium tuberculosis, UniProt P9WFU3); conditions: for Mode of inhibition with regard to Phe / Mode of inhibition with regard to ATP: Lineweaver-Burk plot; for Mode of inhibition with regard to ATP: no sulfate added
T1 sequence (P9WFU3 whole entry): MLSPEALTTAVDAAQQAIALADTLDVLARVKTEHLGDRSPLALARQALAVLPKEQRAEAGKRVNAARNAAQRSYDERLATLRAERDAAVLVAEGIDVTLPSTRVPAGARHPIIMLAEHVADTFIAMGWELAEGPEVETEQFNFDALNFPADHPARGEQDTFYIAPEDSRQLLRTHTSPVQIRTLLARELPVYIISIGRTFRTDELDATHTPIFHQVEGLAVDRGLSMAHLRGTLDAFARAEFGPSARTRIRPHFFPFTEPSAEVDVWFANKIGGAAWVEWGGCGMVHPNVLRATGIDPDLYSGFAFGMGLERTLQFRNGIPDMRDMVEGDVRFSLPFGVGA
T1 sequence (P9WFU1 whole entry, further chain): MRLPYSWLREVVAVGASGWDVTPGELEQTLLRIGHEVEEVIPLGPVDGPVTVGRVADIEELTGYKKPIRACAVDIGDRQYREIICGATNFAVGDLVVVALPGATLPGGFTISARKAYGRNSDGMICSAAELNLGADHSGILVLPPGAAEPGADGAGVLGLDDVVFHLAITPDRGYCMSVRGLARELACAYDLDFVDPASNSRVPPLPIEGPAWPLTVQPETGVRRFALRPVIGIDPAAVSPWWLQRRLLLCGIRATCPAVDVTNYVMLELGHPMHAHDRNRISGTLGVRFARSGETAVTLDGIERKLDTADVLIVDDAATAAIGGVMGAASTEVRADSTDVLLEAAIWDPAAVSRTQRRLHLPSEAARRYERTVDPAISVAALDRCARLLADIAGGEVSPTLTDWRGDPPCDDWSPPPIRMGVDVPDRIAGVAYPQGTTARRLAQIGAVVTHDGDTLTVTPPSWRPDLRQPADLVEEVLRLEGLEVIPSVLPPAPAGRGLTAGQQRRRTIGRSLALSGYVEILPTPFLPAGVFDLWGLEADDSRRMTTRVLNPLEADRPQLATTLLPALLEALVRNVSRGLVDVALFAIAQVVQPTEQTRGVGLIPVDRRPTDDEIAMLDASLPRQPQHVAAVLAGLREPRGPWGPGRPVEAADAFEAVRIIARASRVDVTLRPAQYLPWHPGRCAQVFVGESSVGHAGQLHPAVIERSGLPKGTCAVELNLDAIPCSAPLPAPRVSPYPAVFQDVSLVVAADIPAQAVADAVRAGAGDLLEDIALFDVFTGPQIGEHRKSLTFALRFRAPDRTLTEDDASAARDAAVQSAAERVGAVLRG

Mtb PheRS [2] = target: T1, Mtb PheRS; conditions: for Km: read-out: Km, aminoacylation assay
Mtb PheRS [3] = target: T1, Mtb PheRS; assay: ATP consumption assay (Kinase-Glo), Mtb PheRS; assay type: biochemical
Mtb PheRS [4] = target: T1, Mtb PheRS; assay: biochemical; conditions: read-out: IC50, AMP Glo, Mtb PheRS
Mtb PheRS [5] = target: T1, Mtb PheRS; assay: biochemical; conditions: read-out: IC50, Malachite Green, Mtb PheRS
hFARS1 = target: T2, hFARS1 (Homo sapiens, UniProt Q9Y285); assay: biochemical; conditions: for IC50: 50 nM enzyme, 2 μM ATP, 20 μM L-Phe, 1 mg/ml yeast total tRNA, 1 h, read-out: IC50, Kinase Glo, hFARS1
T2 sequence (Q9Y285 1-508): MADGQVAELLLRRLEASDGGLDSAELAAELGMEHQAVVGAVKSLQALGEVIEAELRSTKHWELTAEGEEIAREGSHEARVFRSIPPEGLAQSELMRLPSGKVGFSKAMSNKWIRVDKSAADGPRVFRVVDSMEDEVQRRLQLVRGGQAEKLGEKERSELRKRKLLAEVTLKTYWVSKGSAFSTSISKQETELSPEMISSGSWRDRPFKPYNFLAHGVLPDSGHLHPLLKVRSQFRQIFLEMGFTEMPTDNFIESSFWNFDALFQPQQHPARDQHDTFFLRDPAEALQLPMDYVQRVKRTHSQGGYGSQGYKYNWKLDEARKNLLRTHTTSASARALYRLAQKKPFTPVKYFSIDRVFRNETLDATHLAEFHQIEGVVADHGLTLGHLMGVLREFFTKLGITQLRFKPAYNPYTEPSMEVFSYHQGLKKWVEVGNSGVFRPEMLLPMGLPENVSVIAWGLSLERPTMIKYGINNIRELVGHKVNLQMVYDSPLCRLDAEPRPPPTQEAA
T2 sequence (Q9NSD9 1-589 partner): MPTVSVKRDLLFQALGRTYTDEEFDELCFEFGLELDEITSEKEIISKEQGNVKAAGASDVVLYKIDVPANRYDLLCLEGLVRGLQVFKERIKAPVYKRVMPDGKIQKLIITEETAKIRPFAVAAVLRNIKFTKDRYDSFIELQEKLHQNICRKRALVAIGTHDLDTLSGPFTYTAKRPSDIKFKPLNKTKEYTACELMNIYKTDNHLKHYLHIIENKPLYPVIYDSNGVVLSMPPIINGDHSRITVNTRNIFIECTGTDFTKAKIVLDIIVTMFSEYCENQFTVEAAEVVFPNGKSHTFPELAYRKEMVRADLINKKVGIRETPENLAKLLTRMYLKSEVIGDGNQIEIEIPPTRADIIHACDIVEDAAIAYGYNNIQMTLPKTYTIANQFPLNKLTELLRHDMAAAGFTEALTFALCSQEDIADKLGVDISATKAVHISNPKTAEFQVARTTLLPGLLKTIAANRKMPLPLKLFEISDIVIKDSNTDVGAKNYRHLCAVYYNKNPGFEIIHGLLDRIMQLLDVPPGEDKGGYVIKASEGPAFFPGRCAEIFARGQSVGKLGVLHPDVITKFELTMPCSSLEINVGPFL

hFARS2 = target: T3, hFARS2 (Homo sapiens, UniProt O95363); assay: biochemical; conditions: for IC50: E. coli total tRNA 0.5 mg/ml, 1 h, read-out: IC50, Kinase Glo, hFARS2
T3 sequence (O95363 38-451 limits assumed): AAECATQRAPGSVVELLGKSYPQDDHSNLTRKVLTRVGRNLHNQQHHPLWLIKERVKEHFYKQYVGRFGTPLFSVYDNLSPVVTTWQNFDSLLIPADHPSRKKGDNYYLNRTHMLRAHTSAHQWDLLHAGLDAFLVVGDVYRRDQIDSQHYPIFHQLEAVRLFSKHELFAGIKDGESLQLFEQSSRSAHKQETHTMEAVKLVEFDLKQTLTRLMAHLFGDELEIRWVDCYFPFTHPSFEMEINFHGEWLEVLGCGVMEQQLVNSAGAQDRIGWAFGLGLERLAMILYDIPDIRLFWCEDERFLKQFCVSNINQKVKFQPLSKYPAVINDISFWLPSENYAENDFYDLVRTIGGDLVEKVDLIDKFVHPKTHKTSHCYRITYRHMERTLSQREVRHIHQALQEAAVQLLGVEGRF

Mtb H37Rv = assay: MIC by microplate alamarBlue assay; assay type: cell-based, Mycobacterium tuberculosis; conditions: for MIC: Mycobacterium tuberculosis, H37RV, n = 3, read-out: MIC against Mtb H37Rv
Mtb PheRS [6] = target: T1, Mtb PheRS; assay: biochemical
WT H37Rv = assay: microbe, parasite or virus in culture; assay type: cell-based; conditions: Mycobacterium tuberculosis, 264 h, absorbance at 580 nm, 11 days, Gompertz fit
in vitro [7] = assay type: cell-based; conditions: human
Procedure: (§1) HEK293T, Vero E6, and HepG2 cells were cultured in Dulbecco's modified Eagle's medium plus 10% fetal bovine serum and 1% penicillin/streptomycin at 37 °C with 5% CO2. Plates of 96 wells were plated with 100 μl 1 × 10^5 cells/ml per well and incubated for 24 h before adding compound in serial dilutions. After another 48 h, 40 μl reagents of CellTiter-Glo cell viability assay (Promega) was added, and the plates were shaken at 400 rpm for 10 min in the dark. Luminescence was recorded with plate reader. The data were analyzed with GraphPad Prism 9.
(§2) HepG2 (A and B) is an immortal cell line derived from human liver cells. HEK-293T (C and
(§3) D) is a human embryonic kidney 293 cell line. Vero E6 is a cell line derived from African
(§4) green monkey kidney epithelial cells. […]

in vitro [8] = assay type: cell-based, human; conditions: human
Procedure: as §1, §2, §3, §4

HEK-293T = assay: in vitro; assay type: cell-based, human; conditions: 48 h
Procedure: as §1, §2, §3, §4

[9] = Cytotoxicity, CellTiter-Glo, Vero E6; assay type: cell-based; conditions: African green monkey, Vero E6 cells
Procedure: as §1, §2, §3, §4

in vitro [10] = assay type: cell-based
Procedure: as §1

luciferase = assay: Counter-screen of Kinase-Glo coupled reaction, Mtb PheRS omitted; assay type: biochemical; conditions: concentrations up to 20 μM
PPase, PNPase = assay: Counter-screen of PPi production coupled reaction, Mtb PheRS omitted; assay type: biochemical; conditions: concentrations up to 20 μM
HepG2 = assay: in vitro; assay type: cell-based; conditions: human, 48 h
Procedure: as §1, §2, §3, §4

human FAAH = conditions: cited from earlier work
N[C@@H](Cc1ccccc1)C(=O)O = assay: purified protein, by the assay type

With `Nc1ncnc2c1ncn2[C@@H]1O[C@H](COP(=O)(O)OP(=O)(O)OP(=O)(O)O)[C@@H](O)[C@H]1O` [ATP] as the compound, how does the Km (Mtb PheRS [1]; read-out: apparent Km, PPi production assay) read?
Its Km is 162 ± 11.6 µM.

And the Km (Mtb PheRS [2])?
Its Km is 387 ± 279 µM.

And the “kcat, aminoacylation assay” value (Mtb PheRS [2]; substrate of Mtb PheRS)?
The value was 0.405 ± 0.417 s⁻¹.

For `O=C(Nc1cccc(S(=O)(=O)NCCc2c[nH]c3ccccc23)c1)Nc1nccs1` [GDI05-001], which IC50 (Mtb PheRS [3]) is on record?
The IC50 was 1.72 ± 0.13 µM.

What about the IC50 (Mtb PheRS [4]) of the same compound?
Its IC50 is 0.87 ± 0.06 µM.

What about the IC50 (Mtb PheRS [5]) of the same compound?
The IC50 was 0.52 ± 0.06 µM.

What about the IC50 (hFARS1) of the same compound?
The IC50 was over 200 µM.

And the IC50 (hFARS2)?
The IC50 was 85.4 µM.

And the MIC (Mtb H37Rv)?
Its MIC is 145 µM (≈ 64 µg/mL).

And the “Mode of inhibition with regard to Phe” value (Mtb PheRS [1])?
The value was “Phe competitive inhibitors”.

And the “Mode of inhibition with regard to ATP” value (Mtb PheRS [1])?
Its value is “noncompetitive”.

What about the IC50 (Mtb PheRS [6]) of the same compound?
Its IC50 is 1.34 µM.

And the Ki (Mtb PheRS [6]; Ki in the Phe-competitive mode)?
The Ki was 0.2 ± 0.01 µM.

What does the source list for `O=C(Nc1cccnc1)N1CCC(Cc2cccc(Oc3ccc(C(F)(F)F)cn3)c2)CC1` [PF-3845]?
IC50 (Mtb PheRS [3]): 2.65 ± 0.19 µM; IC50 (Mtb PheRS [4]): 2.49 ± 0.19 µM; IC50 (Mtb PheRS [5]): 1.95 ± 0.19 µM; IC50 (hFARS1): > 200 µM; Inhibition of human cytoplasmic PheRS (hFARS1; concentrations up to 200 μM): does not inhibit; IC50 (hFARS2): > 200 µM; Inhibition of human mitochondrial PheRS (hFARS2; concentrations up to 200 μM): does not inhibit; MIC (Mtb H37Rv): ~24 µM (≈ 11 µg/mL); MIC against Mtb H37Rv (Mtb H37Rv; n = 3): ~23.87 µM (≈ 10.9 µg/mL); MIC (WT H37Rv): 220 µM (≈ 100 µg/mL); CC50 (in vitro [7]; 48 h, CellTiter-Glo, read-out: CC50, HepG2): 21.7 ± 1.53 µM; CC50 (in vitro [8]; 48 h, CellTiter-Glo, read-out: CC50, HEK-293T): 16.9 ± 1.54 µM; CC50 (HEK-293T; CellTiter-Glo, read-out: CC50, HEK-293T): 16.9 µM; CC50 at 48 h [9]: 21.7 µM; CC50 (in vitro [10]; human, African green monkey): 16.9 to 25.8 µM; CC50 (in vitro [10]; two human cell lines, preliminary result, read-out: CC50 against human cell lines (range)): 16.9 to 21.7 µM; Inhibition of luciferase (Kinase-Glo coupled reaction) (luciferase): did not inhibit; Inhibition of PPase and PNPase (PPi production coupled reaction) (PPase, PNPase): did not inhibit; Mode of inhibition with regard to tRNAPhe (Mtb PheRS [1]): uncompetitive inhibitor; also recorded: uncompetitive inhibition mode; Mode of inhibition with regard to ATP in the presence of sulfate (Mtb PheRS [1]; 5 mM (NH4)2SO4): competitive inhibition mode; also recorded: ATP competitive inhibitor; Mode of inhibition with regard to Phe (Mtb PheRS [1]): Phe competitive inhibitors; also recorded: competitive inhibition mode; Mode of inhibition with regard to ATP (Mtb PheRS [1]): mixed inhibition mode; IC50 (Mtb PheRS [6]): 2.4 µM; Ki (Mtb PheRS [6]; Ki in the Phe-competitive mode): 1.7 ± 0.11 µM; Ki (Mtb PheRS [6]; Ki with regard to ATP when SO4 2- was absent, mixed inhibition mode, no sulfate): 1.08 ± 0.245 µM; Ki (Mtb PheRS [6]; Ki with regard to ATP, competitive, with sulfate, 5 mM (NH4)2SO4 in the PheRS enzyme reaction): ~0.73 µM and 0.73 µM

Which IC50 (Mtb PheRS [3]) does the source give for `O=C(Nc1cccnn1)N1CCC(=Cc2cccc(Oc3ccc(C(F)(F)F)cn3)c2)CC1` [PF-04457845] here?
Its IC50 is 9.76 ± 0.73 µM.

What about the IC50 (Mtb PheRS [4]) of the same compound?
The IC50 was 10.1 ± 1.02 µM.

What about the IC50 (Mtb PheRS [5]) of the same compound?
Its IC50 is 11.7 ± 1.43 µM.

What about the IC50 (hFARS1) of the same compound?
Its IC50 is over 200 µM.

And the IC50 (hFARS2)?
Its IC50 is over 200 µM.

What about the CC50 at 48 h (in vitro [7]; CC50, HepG2) of the same compound?
The CC50 at 48 h was 25.8 ± 2.88 µM.

What about the CC50 (HepG2) of the same compound?
Its CC50 is 25.8 µM.

What about the CC50 at 48 h (in vitro [8]; CC50, HEK-293T) of the same compound?
The CC50 at 48 h was 23.6 ± 1.93 µM.

And the CC50 (HEK-293T; human)?
The CC50 was 23.6 µM.

And the CC50 at 48 h (in vitro [10]; human)?
Its CC50 at 48 h is 23.6 to 25.8 µM.

What about the CC50 (in vitro [10]; human, African green monkey) of the same compound?
Its CC50 is 16.9 to 25.8 µM.

What about the “kinact/Ki for covalent inhibition of human FAAH” value (human FAAH) of the same compound?
The value was 40,300 M^−1s^−1.

And the IC50 (Mtb PheRS [6])?
The IC50 was 12 µM.

Which Km (Mtb PheRS [2]) does the source give for `N[C@@H](Cc1ccccc1)C(=O)O` [Phe, phenylalanine] here?
Its Km is 68 ± 6.6 µM.

Which Km (N[C@@H](Cc1ccccc1)C(=O)O; pH 7.4) does the source give for (Mycobacterium tuberculosis H37Rv) here?
Its Km is 18.10 ± 2.44 µM.

For “Mtb PheRS (Mycobacterium tuberculosis H37Rv)”, which Km (N[C@@H](Cc1ccccc1)C(=O)O) is on record?
The Km was 68.0 ± 6.6 µM.

And the kcat (N[C@@H](Cc1ccccc1)C(=O)O)?
The kcat was 1.1 ± 0.0517 s⁻¹.

What about the kcat/Km (N[C@@H](Cc1ccccc1)C(=O)O) of the same compound?
Its kcat/Km is 16200 M⁻¹ s⁻¹.
